Measurements: US9980943B2, “Methods of treating muscular dystrophy” (BOARD OF REGENTS OF THE NEVADA SYSTEM OF HIGHER EDUCATION, …, priority 2013, dated 2018)
Where two headings read alike, the source gives them in different places.

Assays:
Type in all cases: cell-based, mouse
[1] = test system: α7 integrin (LacZ reporter in α7+/LacZ myotubes); test: Myotube α7 integrin FDG assay (Burkin assay in myotubes, 96-well); details: myotubes; for fold induction at 0.5 µM / fold induction at 1 µM / fold induction at 5 µM / fold induction at 10 µM / fold induction at 20 µM / fold induction at 40 µM: Mus musculus, Myotube
[2] = test system: α7 integrin (LacZ reporter in α7βgal+/− myoblasts); test: Myoblast α7+/LacZ integrin FDG assay (Burkin assay in myoblasts, 96-well); details: α7+/LacZ myoblasts, 96-well; for fold induction at 0.5 µM / fold induction at 1 µM / fold induction at 5 µM / fold induction at 10 µM / fold induction at 20 µM / fold induction at 40 µM: Mus musculus, Myoblast, 48 h
[3] = test system: β-galactosidase in CMV-LacZ C2C12 myotubes; test: CMV-LacZ secondary screen in C2C12 myotubes (β-Gal stabilizing assay); details: for fold induction at 5 µM / fold induction at 10 µM / fold induction at 20 µM / fold induction at 40 µM: Mus musculus; for fold induction at 5 µM: C2C12, read-out: CMV-LACZ in Myotubes, signal relative to DMSO, 5 uM; for fold induction at 5 µM / fold induction at 10 µM / fold induction at 20 µM / fold induction at 40 µM / CMV-LACZ in Myotubes, signal relative to DMSO: C2C12 CMV-LacZ myotubes, fold relative to DMSO; for fold induction at 10 µM: C2C12, read-out: CMV-LACZ in Myotubes, signal relative to DMSO, 10 uM; for fold induction at 20 µM: C2C12, read-out: CMV-LACZ in Myotubes, signal relative to DMSO, 20 uM; for fold induction at 40 µM: C2C12, read-out: CMV-LACZ in Myotubes, signal relative to DMSO, 40 uM; for CMV-LACZ in Myotubes (β-galactosidase activity relative to DMSO): CMV-LacZ C2C12 myotubes, 96-well format
Summary of the method: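 β-gal stabilization was measured in C2C12 myoblasts or myotubes stably transfected with a CMV-driven LacZ construct, using the FDG β-gal assay. Compounds were tested in dose-response at 0.5, 1, 5, 10, 20 and 40 μM, with two replicates per point.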

[4] = 0.5 uM, read-out: Burkin Assay in Myotubes, α7 integrin LacZ reporter signal relative to DMSO
[5] = 1 uM, read-out: Burkin Assay in Myotubes, α7 integrin LacZ reporter signal relative to DMSO
[6] = 5 uM, read-out: Burkin Assay in Myotubes, α7 integrin LacZ reporter signal relative to DMSO
[7] = 10 uM, read-out: Burkin Assay in Myotubes, α7 integrin LacZ reporter signal relative to DMSO
[8] = 20 uM, read-out: Burkin Assay in Myotubes, α7 integrin LacZ reporter signal relative to DMSO
[9] = 40 uM, read-out: Burkin Assay in Myotubes, α7 integrin LacZ reporter signal relative to DMSO
[10] = 0.5 uM, read-out: Burkin Assay in Myoblasts, signal relative to DMSO
[11] = 1 uM, read-out: Burkin Assay in Myoblasts, signal relative to DMSO
[12] = 5 uM, read-out: Burkin Assay in Myoblasts, signal relative to DMSO
[13] = 10 uM, read-out: Burkin Assay in Myoblasts, signal relative to DMSO
[14] = 20 uM, read-out: Burkin Assay in Myoblasts, signal relative to DMSO
[15] = 40 uM, read-out: Burkin Assay in Myoblasts, signal relative to DMSO

Row | Structure (SMILES) | fold induction at 5 µM [3] | fold induction at 10 µM [3] | fold induction at 20 µM [3] | fold induction at 40 µM [3] | Burkin Assay in Myotubes, α7 integrin LacZ reporter signal relative to DMSO ([1]; 0.5 uM) | Burkin Assay in Myotubes, α7 integrin LacZ reporter signal relative to DMSO ([1]; 1 uM) | Burkin Assay in Myotubes, α7 integrin LacZ reporter signal relative to DMSO ([1]; 5 uM) | Burkin Assay in Myotubes, α7 integrin LacZ reporter signal relative to DMSO ([1]; 10 uM) | Burkin Assay in Myotubes, α7 integrin LacZ reporter signal relative to DMSO ([1]; 20 uM) | Burkin Assay in Myotubes, α7 integrin LacZ reporter signal relative to DMSO ([1]; 40 uM) | Burkin Assay in Myoblasts, signal relative to DMSO ([2]; 0.5 uM) | Burkin Assay in Myoblasts, signal relative to DMSO ([2]; 1 uM) | Burkin Assay in Myoblasts, signal relative to DMSO ([2]; 5 uM) | Burkin Assay in Myoblasts, signal relative to DMSO ([2]; 10 uM) | Burkin Assay in Myoblasts, signal relative to DMSO ([2]; 20 uM) | Burkin Assay in Myoblasts, signal relative to DMSO ([2]; 40 uM) | CMV-LACZ in Myotubes, signal relative to DMSO ([3]; 5 uM) | CMV-LACZ in Myotubes, signal relative to DMSO ([3]; 10 uM) | CMV-LACZ in Myotubes, signal relative to DMSO ([3]; 20 uM) | CMV-LACZ in Myotubes, signal relative to DMSO ([3]; 40 uM) | also measured
1 | COc1nccc(NCc2ccccc2)c1C#N [MLS001077207-01] | 0.952 | 1.04 | 0.866 | 0.782 | – | – | – | – | – | – | – | – | – | – | – | – | – | – | – | – | fold induction at 0.5 µM [1, 4]: 0.985; fold induction at 1 µM [1, 5]: 1.06; fold induction at 5 µM [1, 6]: 1.42; fold induction at 10 µM [1, 7]: 1.15; fold induction at 20 µM [1, 8]: 1.01; fold induction at 40 µM [1, 9]: 1.21; fold induction at 0.5 µM [2, 10]: 0.97; fold induction at 1 µM [2, 11]: 1.01; fold induction at 5 µM [2, 12]: 1.05; fold induction at 10 µM [2, 13]: 1.06; fold induction at 20 µM [2, 14]: 1.01; fold induction at 40 µM [2, 15]: 1.15
2 | CCOc1ccc(S(=O)(=O)NCCC(=O)NCC(c2cccs2)N2CCOCC2)cc1 (stereo not shown) [MLS001080869-01] | – | – | – | – | – | – | – | – | – | – | – | – | – | – | – | – | – | – | – | – | Burkin Assay in Myotubes (signal relative to DMSO) ([1]; 0.5 uM): 1.011; Burkin Assay in Myotubes (signal relative to DMSO) ([1]; 1 uM): 0.9574; Burkin Assay in Myotubes (signal relative to DMSO) ([1]; 5 uM): 0.974; Burkin Assay in Myotubes (signal relative to DMSO) ([1]; 10 uM): 0.9257; Burkin Assay in Myotubes (signal relative to DMSO) ([1]; 20 uM): 0.9862; Burkin Assay in Myotubes (signal relative to DMSO) ([1]; 40 uM): 0.9802; Burkin Assay in Myoblasts, value relative to DMSO ([2]; 0.5 uM): 1.144; Burkin Assay in Myoblasts, value relative to DMSO ([2]; 1 uM): 1.036; Burkin Assay in Myoblasts, value relative to DMSO ([2]; 5 uM): 1.147; Burkin Assay in Myoblasts, value relative to DMSO ([2]; 10 uM): 0.9857; Burkin Assay in Myoblasts, value relative to DMSO ([2]; 20 uM): 0.973; Burkin Assay in Myoblasts, value relative to DMSO ([2]; 40 uM): 0.8485; CMV-LACZ in Myotubes (β-galactosidase activity relative to DMSO) ([3]; 5 uM): 0.9349; CMV-LACZ in Myotubes (β-galactosidase activity relative to DMSO) ([3]; 10 uM): 0.9153; CMV-LACZ in Myotubes (β-galactosidase activity relative to DMSO) ([3]; 20 uM): 0.9927; CMV-LACZ in Myotubes (β-galactosidase activity relative to DMSO) ([3]; 40 uM): 1.01
3 | Cc1ccc(NS(=O)(=O)c2ccc3c(c2)NC(=O)CCS3)c(Br)c1 [MLS001095231-01] | – | – | – | – | 1.005 | 0.9382 | 1.022 | 0.9695 | 0.9863 | 0.8356 | 0.9692 | 0.9682 | 0.9242 | 0.8637 | 0.9197 | 0.728 | 1.035 | 0.7409 | 0.9181 | 0.6229 | –
4 | Cc1c(C(=O)N2CCCCC2)c(S(=O)(=O)Nc2cccc(Br)c2)c(C)n1C [MLS001096269-01] | 1.09 | 0.74 | 0.986 | 0.775 | – | – | – | – | – | – | – | – | – | – | – | – | – | – | – | – | fold induction at 0.5 µM ([1]; 0.5 uM, read-out: Burkin Assay in Myotubes (signal relative to DMSO)): 0.999; fold induction at 1 µM ([1]; 1 uM, read-out: Burkin Assay in Myotubes (signal relative to DMSO)): 1.09; fold induction at 5 µM ([1]; 5 uM, read-out: Burkin Assay in Myotubes (signal relative to DMSO)): 1.31; fold induction at 10 µM ([1]; 10 uM, read-out: Burkin Assay in Myotubes (signal relative to DMSO)): 1.12; fold induction at 20 µM ([1]; 20 uM, read-out: Burkin Assay in Myotubes (signal relative to DMSO)): 1.13; fold induction at 40 µM ([1]; 40 uM, read-out: Burkin Assay in Myotubes (signal relative to DMSO)): 0.912; fold induction at 0.5 µM ([2]; 0.5 uM, read-out: Burkin Assay in Myoblasts, value relative to DMSO): 1.04; fold induction at 1 µM ([2]; 1 uM, read-out: Burkin Assay in Myoblasts, value relative to DMSO): 1.01; fold induction at 5 µM ([2]; 5 uM, read-out: Burkin Assay in Myoblasts, value relative to DMSO): 0.941; fold induction at 10 µM ([2]; 10 uM, read-out: Burkin Assay in Myoblasts, value relative to DMSO): 1.03; fold induction at 20 µM ([2]; 20 uM, read-out: Burkin Assay in Myoblasts, value relative to DMSO): 1.05; fold induction at 40 µM ([2]; 40 uM, read-out: Burkin Assay in Myoblasts, value relative to DMSO): 1.2
5 | O=C(Cn1cccc1C(=O)c1ccccc1)NCCCc1ccccc1 [MLS001110618-01] | – | – | – | – | 0.9526 | 1.067 | 1.114 | 1.252 | 1.0381 | 0.9463 | 0.9525 | 1.03 | 0.9228 | 1.005 | 0.9713 | 1.083 | 0.8954 | 0.9336 | 1.0555 | 0.4765 | –
6 | COc1ccc(CCNC(=O)c2nn(C)c3c2CS(=O)(=O)c2ccccc2-3)cc1OC [MLS001117140-01] | 0.951 | 1.12 | 1.38 | 1.17 | – | – | – | – | – | – | – | – | – | – | – | – | – | – | – | – | fold induction at 0.5 µM [1, 4]: 0.932; fold induction at 1 µM [1, 5]: 1.12; fold induction at 5 µM [1, 6]: 1.09; fold induction at 10 µM [1, 7]: 1.37; fold induction at 20 µM [1, 8]: 1.09; fold induction at 40 µM [1, 9]: 1.06; fold induction at 0.5 µM [2, 10]: 1.03; fold induction at 1 µM [2, 11]: 1.07; fold induction at 5 µM [2, 12]: 0.909; fold induction at 10 µM [2, 13]: 0.901; fold induction at 20 µM [2, 14]: 0.922; fold induction at 40 µM [2, 15]: 0.942
7 | Cc1cccn2c(=O)c3cc(C(=O)NC4CCCCC4)n(C)c3nc12 [MLS001117351-01] | – | – | – | – | 1.025 | 0.9924 | 0.8315 | 0.9463 | 0.7669 | 0.6986 | 1.103 | 1.105 | 0.7718 | 0.7445 | 0.7137 | 0.4323 | 1.016 | 1.088 | 1.1481 | 0.8952 | –
